The source of these data is ChEMBL document CHEMBL1126591, “Dibenz[b,e]oxepin derivatives: novel antiallergic agents possessing thromboxane A2 and histamine H1 dual antagonizing activity. 1” (J Med Chem, 1993).

Structures are written as SMILES. The source made the active and inactive calls. No cut-off for these calls is given here.

In data set [1] the target is Histamine H1 receptor (Cavia porcellus, UniProt P31389). The experiment in a line: Inhibition of the specific binding of [3H]pyrilamine to guinea pig cerebellum histamine H1 receptor. The class given is tissue-based.
Sequence of Histamine H1 receptor (P31389 whole entry): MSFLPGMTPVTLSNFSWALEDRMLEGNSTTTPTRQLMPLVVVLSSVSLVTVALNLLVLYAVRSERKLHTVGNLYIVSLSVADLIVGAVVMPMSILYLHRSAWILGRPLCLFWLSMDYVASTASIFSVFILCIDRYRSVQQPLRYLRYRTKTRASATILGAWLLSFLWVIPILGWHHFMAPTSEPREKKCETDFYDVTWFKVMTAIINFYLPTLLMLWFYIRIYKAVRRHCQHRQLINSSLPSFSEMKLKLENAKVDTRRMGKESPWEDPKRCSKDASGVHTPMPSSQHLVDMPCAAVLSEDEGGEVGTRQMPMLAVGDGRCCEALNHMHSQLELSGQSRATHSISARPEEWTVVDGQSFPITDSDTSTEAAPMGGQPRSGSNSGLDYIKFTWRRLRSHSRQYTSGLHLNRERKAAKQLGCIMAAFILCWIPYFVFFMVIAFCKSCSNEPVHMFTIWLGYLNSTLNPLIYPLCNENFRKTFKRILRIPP
A short description of data set [2]: Affinity for TXA2 / PGH-2 receptors in guinea pig platelets, by inhibition of [3H]U-46619 binding.
Data set [3] concerns the target T1, Muscarinic acetylcholine receptor M1 (Homo sapiens, UniProt P11229).
T1 sequence (P11229 whole entry): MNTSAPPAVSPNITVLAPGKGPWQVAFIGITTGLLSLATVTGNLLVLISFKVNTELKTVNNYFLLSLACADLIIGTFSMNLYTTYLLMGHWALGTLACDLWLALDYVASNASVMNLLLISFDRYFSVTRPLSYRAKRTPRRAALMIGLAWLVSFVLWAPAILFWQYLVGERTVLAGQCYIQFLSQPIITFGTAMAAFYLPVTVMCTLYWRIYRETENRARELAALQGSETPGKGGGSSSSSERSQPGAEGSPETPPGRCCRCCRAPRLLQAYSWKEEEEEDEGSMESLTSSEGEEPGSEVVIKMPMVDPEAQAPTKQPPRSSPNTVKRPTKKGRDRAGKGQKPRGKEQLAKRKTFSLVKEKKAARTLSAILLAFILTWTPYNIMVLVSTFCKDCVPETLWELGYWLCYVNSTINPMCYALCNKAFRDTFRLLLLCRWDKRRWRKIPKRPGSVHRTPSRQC
The experiment in a line: Inhibition of muscarinic-1 receptor binding at a concentration of 10 uM; Showed negligible activities.

Data set [4] addresses T2, Prostaglandin E2 receptor EP3 subtype (Homo sapiens, UniProt P43115).
T2 sequence (P43115 whole entry): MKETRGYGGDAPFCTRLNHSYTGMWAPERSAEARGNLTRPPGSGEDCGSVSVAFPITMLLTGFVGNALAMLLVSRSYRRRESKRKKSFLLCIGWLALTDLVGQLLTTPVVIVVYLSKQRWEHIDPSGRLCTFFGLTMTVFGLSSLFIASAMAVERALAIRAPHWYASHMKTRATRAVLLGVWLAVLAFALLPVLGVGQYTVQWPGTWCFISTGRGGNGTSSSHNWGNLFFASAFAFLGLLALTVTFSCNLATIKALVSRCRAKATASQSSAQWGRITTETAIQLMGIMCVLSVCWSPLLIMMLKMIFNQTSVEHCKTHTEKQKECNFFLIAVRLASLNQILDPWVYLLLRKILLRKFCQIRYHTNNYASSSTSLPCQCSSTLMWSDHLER
Kind of data set: Inhibition of prostaglandin E2 receptor binding at a concentration of 10 uM; Showed negligible activities.

Data set [5] is described as follows: Inhibition of prostaglandin I2 receptor binding at a concentration of 10 uM; Showed negligible activities.
The subject of data set [6] is Alpha-2 adrenergic receptor (Rattus norvegicus). Kind of data set: Inhibition of alpha-2 adrenergic receptor binding at a concentration of 10 uM; Showed negligible activities.
Data set [7] addresses 5-hydroxytryptamine receptor 5B (Rattus norvegicus, UniProt P35365). Kind of data set: Inhibition of serotonin receptor binding at a concentration of 10 uM; Showed negligible activities.
The subject of data set [8] is Alpha-1 adrenergic receptor (Rattus norvegicus). Kind of data set: Inhibition of alpha-1 adrenergic receptor binding at a concentration of 10 uM; Showed negligible activities.
The target of data set [9] is Platelet-activating factor receptor (Homo sapiens, UniProt P25105). Kind of data set: Inhibition of platelet-activating factor binding at a concentration of 10 uM; Showed negligible activities.
Sequence of Platelet-activating factor receptor (P25105 whole entry): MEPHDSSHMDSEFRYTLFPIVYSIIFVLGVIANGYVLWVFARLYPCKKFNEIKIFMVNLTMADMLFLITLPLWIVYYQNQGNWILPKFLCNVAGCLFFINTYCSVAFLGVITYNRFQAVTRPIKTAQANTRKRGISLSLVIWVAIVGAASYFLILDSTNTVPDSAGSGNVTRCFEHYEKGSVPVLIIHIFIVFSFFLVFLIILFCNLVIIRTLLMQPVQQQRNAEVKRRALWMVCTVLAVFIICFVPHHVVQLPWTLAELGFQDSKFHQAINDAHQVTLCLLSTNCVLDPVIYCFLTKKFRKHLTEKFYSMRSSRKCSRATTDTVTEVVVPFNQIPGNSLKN
Data set [10] is described as follows: Lethal concentration in 50% rats peroral administration of compound. As to conditions: rat, in vivo, po. The data set is classed as ADME, organism-based.
The target of data set [11] is Histamine H2 receptor (Rattus norvegicus, UniProt P25102). Kind of data set: Inhibition of H2 histamine receptor binding at a concentration of 10 uM; Showed negligible activities.
Sequence of Histamine H2 receptor (P25102 whole entry): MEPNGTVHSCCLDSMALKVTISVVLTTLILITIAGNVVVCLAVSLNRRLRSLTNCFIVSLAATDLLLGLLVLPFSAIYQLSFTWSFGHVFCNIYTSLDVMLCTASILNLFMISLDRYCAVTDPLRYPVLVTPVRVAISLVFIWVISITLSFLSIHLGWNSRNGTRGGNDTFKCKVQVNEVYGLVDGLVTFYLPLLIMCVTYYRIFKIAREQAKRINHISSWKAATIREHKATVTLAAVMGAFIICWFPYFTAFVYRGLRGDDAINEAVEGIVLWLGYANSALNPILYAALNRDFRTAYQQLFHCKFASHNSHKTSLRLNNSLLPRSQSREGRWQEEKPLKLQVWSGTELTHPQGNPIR
Data set [12] concerns Rattus norvegicus. Kind of data set: Compound concentration inhibiting 48 hr homologous passive cutaneous Anaphylaxis in rats peroral administration. Conditions: po. The data set is classed as functional.
The target of data set [13] is D(2) dopamine receptor (Rattus norvegicus, UniProt P61169). The experiment in a line: Inhibition of dopamine receptor binding at a concentration of 10 uM; Showed negligible activities.
Sequence of D(2) dopamine receptor (P61169 whole entry): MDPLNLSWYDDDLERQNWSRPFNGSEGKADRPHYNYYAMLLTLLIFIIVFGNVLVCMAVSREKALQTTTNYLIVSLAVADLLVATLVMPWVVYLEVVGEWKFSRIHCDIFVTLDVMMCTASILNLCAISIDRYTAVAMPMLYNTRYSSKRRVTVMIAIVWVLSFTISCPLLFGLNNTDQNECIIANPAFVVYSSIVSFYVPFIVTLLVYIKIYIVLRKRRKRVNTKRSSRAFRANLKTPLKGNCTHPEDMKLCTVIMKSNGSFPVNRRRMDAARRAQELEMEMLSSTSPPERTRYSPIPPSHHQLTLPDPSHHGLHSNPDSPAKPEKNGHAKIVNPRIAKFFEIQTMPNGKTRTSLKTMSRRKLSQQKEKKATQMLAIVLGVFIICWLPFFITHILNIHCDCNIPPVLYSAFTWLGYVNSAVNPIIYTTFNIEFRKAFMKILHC
The subject of data set [14] is Rattus norvegicus. The experiment in a line: Compound concentration inhibiting 48 hr homologous passive cutaneous Anaphylaxis in rats peroral administration; No efficacy. The data set is classed as functional, organism-based.
Data set [15] deals with Histamine H1 receptor (Cavia porcellus) (UniProt P31389). Kind of data set: Inhibitory effect on the specific binding of [3H]pyrilamine to guinea pig cerebellum histamine H1 receptor at 1 uM. The class given is tissue-based.
Sequence of Histamine H1 receptor (Cavia porcellus) (P31389 whole entry): as the sequence (P31389 whole entry) above
The species entered for data set [16] is Cavia porcellus. Kind of data set: Inhibitory effect on the specific binding of [3H]U-46619 to guinea pig platelets TXA2/PGH2 receptors at 1 uM.

Sequence of 5-hydroxytryptamine receptor 5B (P35365 whole entry): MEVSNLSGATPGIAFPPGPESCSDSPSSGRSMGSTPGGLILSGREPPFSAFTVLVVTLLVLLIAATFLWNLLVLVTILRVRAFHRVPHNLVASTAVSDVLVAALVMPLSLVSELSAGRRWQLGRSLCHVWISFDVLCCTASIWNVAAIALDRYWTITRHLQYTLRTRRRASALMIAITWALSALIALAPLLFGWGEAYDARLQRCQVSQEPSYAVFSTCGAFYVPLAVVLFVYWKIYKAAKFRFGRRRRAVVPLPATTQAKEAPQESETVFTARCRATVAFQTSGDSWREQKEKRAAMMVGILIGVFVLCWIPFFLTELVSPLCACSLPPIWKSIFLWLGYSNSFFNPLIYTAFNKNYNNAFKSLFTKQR

`O=C(O)CCc1ccc2c(c1)C(SCCN1CCC(Cc3ccccc3)CC1)c1ccccc1CO2` (centres undefined): the Ki in data set [1] came out at 12 nM; in data set [2] it was 340 nM.

On to `O=C(O)Cc1ccc2c(c1)C(SCCN1CCC(Cc3ccccc3)CC1)c1ccccc1CO2` (centres undefined), for which the Ki in data set [1] is 10 nM; in [2], 430 nM.

Regarding `O=C(O)c1ccc2c(c1)C(SCCN1CCC(c3ccccc3)CC1)c1ccccc1CO2` (centres undefined), the figures for the inhibitory constant (Ki) in [1] and in data set [2] were 20 nM and 990 nM, respectively.

For `CC(C)(C(=O)O)c1ccc2c(c1)C(SCCN1CCC(Cc3ccccc3)CC1)c1ccccc1CO2` (centres undefined), the values for the Ki in [1] and in data set [2] were 17 nM and 1600 nM, respectively.

In the case of `O=C(O)Cc1ccc2c(c1)/C(=C/CN1CCC(Cc3ccccc3)CC1)c1ccccc1CO2`, the Ki in data set [1] was 20 nM; in data set [3], “Not Active”; in data set [4] it was “Not Active”; in data set [5], “Not Active”; in data set [6] it was “Not Active”; in data set [7] it was “Not Active”. The inhibitory constant (Ki) result in data set [8] was “Not Active”; in data set [9], “Not Active”; in data set [2] it was 740 nM; in data set [11], “Not Active”; in data set [13] it was “Not Active”. In addition, the LD50 in data set [10] was greater than 1000 mg/kg. Further, the ED50 in data set [12] amounted to 0.73 mg/kg.

Take `O=C(O)c1ccc2c(c1)C(SCCN1CCC(Cc3ccccc3)CC1)c1ccccc1CO2` (racemic): the Ki in data set [1] stood at 18 nM; in data set [2], 140 nM.

As for `O=C(O)COc1ccc(CCNS(=O)(=O)c2ccccc2)cc1` [SULOTROBAN], in data set [14], the ED50 entry was “inactive”. Also, in data set [15], the inhibition stood at 0%.

As for `O=C(O)c1ccc2c(c1)C(SCCNS(=O)(=O)c1ccccc1)c1ccccc1CO2` (centres undefined), in data set [15], the inhibition stood at 0%. The inhibition constant (Ki) in [2] is 32 nM.

For `O=C(O)Cc1ccc2c(c1)/C(=C\CN1CCC(Cc3ccccc3)CC1)c1ccccc1CO2`, the Ki turned out to be 15 nM in data set [1] and 2600 nM in [2].

Molecule `O=C(O)c1ccc2c(c1)/C(=C/CN1CCN(c3ccc(F)cc3)CC1)c1ccccc1CO2` yielded an inhibition in [15] of 3%. In data set [2], this molecule had a Ki of 2300 nM.

With `O=C(O)c1ccc2c(c1)C(SCCN1CCC(Cc3ccccc3)CC1)c1ccccc1CO2` (stereo in doubt; (+)12), the inhibition constant (Ki) in data set [1] turned out to be 9.9 nM; in [2], 14000 nM.

Turning to `O=C(O)c1ccc2c(c1)C(SCCN1CCOCC1)c1ccccc1CO2` (centres undefined), the Ki in [1] was 42 nM; in [2], 1900 nM.

In the case of `O=C(O)c1ccc2c(c1)C(SCCN1CCN(c3ccccc3)CC1)c1ccccc1CO2` (centres undefined), the Ki in data set [1] was determined as 47 nM; in [2], 210 nM.

Regarding `O=C(O)c1ccc2c(c1)C(SCCN1CCN(c3ccc(F)cc3)CC1)c1ccccc1CO2` (centres undefined), the values for the inhibition constant Ki in data set [1] and in [2] were 41 nM and 400 nM, respectively.

Consider `O=C(O)c1ccc2c(c1)C(SCCN1CCc3ccccc3C1)c1ccccc1CO2` (centres undefined), for which the Ki was 6.9 nM in [1] and 240 nM in [2].

Take `CN(C)C/C=C1\c2ccccc2COc2ccc(CC(=O)O)cc21`: the inhibition constant (Ki) in [2] is greater than 1000 nM. The molecule also returned an ED50 in data set [12] of 0.077 mg/kg.

Take `O=C(O)c1ccc2c(c1)C(SCCN1CCC(Cc3ccccc3)CC1)c1ccccc1CO2` (stereo in doubt; (-)12): the Ki in data set [1] stood at 740 nM; in data set [2], 42 nM.

Take `CN1CCC(=C2c3ccccc3CC(=O)c3sccc32)CC1` [KETOTIFEN]: in [12], the ED50 came to 4.8 mg/kg.

`O=C(O)c1ccc2c(c1)C(SCCN1CCN(Cc3ccccc3)CC1)c1ccccc1CO2` (centres undefined): the values for the Ki in data set [1] and in data set [2] were 14 nM and 490 nM, respectively.

In data set [2], `O=C(O)c1ccc2c(c1)/C(=C/Cn1cnc3ccccc31)c1ccccc1CO2` yielded a Ki of 15 nM.

For the molecule `O=C(O)c1ccc2c(c1)C(SCCN1CCC(n3c(O)nc4ccccc43)CC1)c1ccccc1CO2` (centres undefined), the figures for the Ki in [1] and in data set [2] were 500 nM and 130 nM, respectively.

As for `CN(C)CCSC1c2ccccc2COc2ccc(C(=O)O)cc21` (centres undefined), the Ki in data set [1] was 9 nM. The inhibition in data set [16] was 18%. Besides, in data set [12], the 50% effect level (ED50) was put at a dose of 0.92 mg/kg.
